We go through 37 compounds from patent US20230250096A1, “SUBSTITUTED PHENYL-1H-PYRROLO[2,3-c] PYRIDINE DERIVATIVES” (Janssen Pharmaceutica NV, priority 2021, published 2023).

Molecules are shown by their SMILES. pIC50: −log10 of the molar value.

In experiment [1] the target is T1, menin/MLL (terbium chelate-labeled menin, FITC-MBM1 peptide) (Homo sapiens, UniProt O00255, T541A).
T1 construct: Menin (a.a 1-610-6xhis tag, 2.3 mg/mL in 20 mM Hepes)
T1 sequence (O00255 with tags, fused parts or gaps T541A): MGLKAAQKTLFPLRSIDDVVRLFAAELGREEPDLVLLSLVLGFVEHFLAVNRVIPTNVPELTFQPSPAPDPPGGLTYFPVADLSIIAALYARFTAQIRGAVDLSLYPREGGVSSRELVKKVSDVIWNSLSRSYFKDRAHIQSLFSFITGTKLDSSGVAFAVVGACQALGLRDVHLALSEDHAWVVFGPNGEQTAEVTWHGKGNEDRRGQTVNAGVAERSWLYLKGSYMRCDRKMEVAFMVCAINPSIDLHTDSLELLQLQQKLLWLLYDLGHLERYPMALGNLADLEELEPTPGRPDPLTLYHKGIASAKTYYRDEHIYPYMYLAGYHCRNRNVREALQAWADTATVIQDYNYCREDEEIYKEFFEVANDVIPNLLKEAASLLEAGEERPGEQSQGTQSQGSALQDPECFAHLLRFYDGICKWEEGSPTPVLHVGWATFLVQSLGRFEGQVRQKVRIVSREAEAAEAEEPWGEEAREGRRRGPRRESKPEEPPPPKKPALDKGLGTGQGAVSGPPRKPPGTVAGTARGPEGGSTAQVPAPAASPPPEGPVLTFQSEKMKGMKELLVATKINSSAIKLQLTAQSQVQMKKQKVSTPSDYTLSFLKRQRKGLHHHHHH
Kind of experiment: Menin/MLL homogenous time-resolved fluorescence (HTRF) assay. Format: binding. The note with it: 30 min incubation. The method in brief:
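Terbium-labeled menin (a.a. 1-610, His-tagged; […]) pre-incubated 30 min with compound, then 75 nM FITC-MBM1 peptide added for 15 min at ambient temperature in Tris pH 7.5 buffer, 0.5% DMSO. HTRF 520/490 nm ratio read; IC50 from 11-point four-fold titrations, typically from 10 μM.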
In general terms: Time-resolved FRET reads energy transfer from a long-lived donor to a nearby acceptor.

Experiment [2] deals with MEIS1 mRNA expression. In words: MEIS1 mRNA expression assay (Quantigene Singleplex) in MOLM14 cells. Type of experiment: cell-based, human. The note with it: 48 hours incubation. The method in brief: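 MOLM14 cells, 3,750/well, exposed to increasing compound concentrations for 48 h. MEIS1 mRNA measured by QuantiGene Singleplex branched-DNA hybridization (lysis 45 min, hybridization 18–22 h, both 55 °C), normalized to RPL28. IC50 fitted to background-corrected fold change versus DMSO.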

As for `CC(=O)N1CCC(N2CC[C@@H](Cc3cn(-c4ccc(F)cc4C(=O)N(C)C(C)C)c4cncc(C)c34)C2)C(CO)C1` (mixture of isomers) [Compound 248], the pIC50 (in general, the IC50 on a negative log10 scale, so that one unit is a factor of ten) in experiment [1] is 9.59; in experiment [2] (Homo sapiens, MOLM-14, 48 h) it was 7.96.

On to `CC(=O)N1CC(CN2CC(Cc3cn(-c4ccc(F)cc4C(=O)N(C)C(C)C)c4cncc(C)c34)C2)C1` [Compound 114], for which the pIC50 in experiment [1] was 9.76; in experiment [2] (Homo sapiens, MOLM-14, 48 h), 6.31.

With `CC(=O)N1CCC(CN2CC[C@@H](Cc3cn(-c4ccc(F)cc4C(=O)N4CCC45CCC5)c4cncc(C)c34)C2)CC1` [Compound 310], the pIC50 in experiment [1] is 9.92; in experiment [2] (Homo sapiens, MOLM-14, 48 h), 6.45.

Take `Cc1cncc2c1c(CC1CN(CC3CCCC(=O)N3)C1)cn2-c1ccc(F)cc1C(=O)N(C)C(C)C` (centres unmarked) [Compound 95]: the pIC50 in experiment [1] is 9.22; in experiment [2] (Homo sapiens, MOLM-14, 48 h) it was about 6.04.

`CC(=O)N1CCC([C@@H](C)N2CC[C@H](Cc3cn(-c4ccc(F)cc4[S@@](=N)(=O)C(C)C)c4cncc(C)c34)C2)CC1` (single isomer, unassigned) [Compound 233a]: the pIC50 is 9.77 in experiment [1] and 6.61 in experiment [2] (Homo sapiens, MOLM-14, 48 h).

Regarding `Cc1cc(CN2CC(Cc3cn(-c4ccc(F)cc4C(=O)N(C)C(C)C)c4cncc(C)c34)C2)[nH]n1` [Compound 285], the pIC50 was 8.83 in experiment [1] and about 5.88 in experiment [2] (Homo sapiens, MOLM-14, 48 h).

Consider `CC(=O)N1CCC([C@H](C)N2CC[C@H](Cc3cn(-c4ccc(F)cc4[S@@](=N)(=O)C(C)C)c4cncc(C)c34)C2)CC1` (single isomer, unassigned) [Compound 233b], for which the pIC50 in experiment [1] was 8.65; in experiment [2] (Homo sapiens, MOLM-14, 48 h), under 6.00.

As to `COCCNCCCC(C(C)C)N1CC[C@H](Cc2cn(-c3ccc(F)cc3C(=O)N(C)C(C)C)c3cncc(C)c23)C1` (mixture of isomers) [Compound 15], the pIC50 was 10.40 in experiment [1] and over 9.10 in experiment [2] (Homo sapiens, MOLM-14, 48 h).

On to `Cc1cncc2c1c(CC1CCN(CC3CCN(C(=O)CO)CC3)C1)cn2-c1ccc(F)cc1C(=O)N(C)C(C)C` (single isomer, unassigned) [Compound 87], for which the pIC50 in experiment [1] was 10.38; in experiment [2] (Homo sapiens, MOLM-14, 48 h) it was 7.57.

As to `Cc1cncc2c1c(C=C1CCN(CC3CCOCC3)C1)cn2-c1ccc(F)cc1C(=O)N(C)C(C)C` (single isomer, unassigned) [Compound 523a], the values for the pIC50 in experiment [1] and in experiment [2] were 9.42 and under 6.00, respectively.

Consider `CC(=O)N1CCC(CN2CCC(Cc3cn(-c4ccc(F)cc4C(=O)N(C)C(C)C)c4cncc(C)c34)C2C)CC1` (centres unmarked) [Compound 227], for which the pIC50 was 9.18 in experiment [1] and 6.26 in experiment [2].

Regarding `Cc1cncc2c1c(CC1CCN(CC3CCN(C(=O)CC4CS(=O)(=O)C4)CC3)C1)cn2-c1ccc(F)cc1C(=O)N(C)C(C)C` (single isomer, unassigned) [Compound 108], the pIC50 was 9.79 in experiment [1] and 6.82 in experiment [2].

On to `Cc1cncc2c1c(CC1CN(CC3CCN(C(=O)C4(O)CC4)CC3)C1)cn2-c1ccc(F)cc1C(=O)N(C)C(C)C` [Compound 251], for which the pIC50 was 10.18 in experiment [1] and 7.08 in experiment [2] (Homo sapiens, MOLM-14, 48 h).

For `CC(=O)N1CCC(CN2CCC(Cc3cn(-c4ccc(F)cc4S(=O)(=O)C(C)C)c4cncc(C)c34)C2)CC1` (centres unmarked) [Compound 93], the pIC50 in experiment [1] is 9.38; in experiment [2] (Homo sapiens, MOLM-14, 48 h), about 6.44.

Take `COCCN(C)CCCC(C(C)C)N1CCC(Cc2cn(-c3ccc(F)cc3C(=O)N(C)C(C)C)c3cncc(C(F)(F)F)c23)C1` (centres unmarked) [Compound 7]: the pIC50 was 9.52 in experiment [1] and 6.80 in experiment [2] (Homo sapiens, MOLM-14, 48 h).

Take `CC[C@@H]([C@H]1C[C@@H](N2C[C@H]3CN(C(C)=O)C[C@@H]3C2)C1)N1CC[C@H](Cc2cn(-c3ccc(F)cc3C(=O)N(C)C(C)C)c3cncc(Cl)c23)C1` (single isomer, unassigned) [Compound 27c]: the pIC50 in experiment [1] is 10.42; in experiment [2] (Homo sapiens, MOLM-14, 48 h), 7.40.

For `CC(=O)N[C@H]1CC[C@H](CN2CC[C@H](Cc3cn(-c4ccc(F)cc4C(=O)N(C)C(C)C)c4cncc(C)c34)C2)CC1` (single isomer, unassigned) [Compound 73], the pIC50 in experiment [1] was 10.24; in experiment [2] (Homo sapiens, MOLM-14, 48 h), 7.00.

Turning to `CC(=O)N1C[C@@H]2CN([C@H]3C[C@H]([C@@H](C(C)C)N4CC(Cc5cn(-c6ccc(F)cc6C(=O)N(C)C(C)C)c6cncc(Cl)c56)C4)C3)C[C@H]2C1` (single isomer, unassigned) [Compound 39b], the pIC50 is 10.28 in experiment [1] and 7.46 in experiment [2] (Homo sapiens, MOLM-14, 48 h).

`Cc1cncc2c1c(CC1CN(C3CCCN(C)C(=O)C3)C1)cn2-c1ccc(F)cc1C(=O)N(C)C(C)C` (centres unmarked) [Compound 291]: the pIC50 is 9.23 in experiment [1] and 6.33 in experiment [2] (Homo sapiens, MOLM-14, 48 h).

As to `Cc1cncc2c1c(C[C@@H]1CCN(CC3CCN(C(=O)C(C)C)CC3)C1)cn2-c1ccc(F)cc1C(=O)N(C[C@H](C)O)C(C)C` [Compound 330], the pIC50 is 9.89 in experiment [1] and 8.00 in experiment [2] (Homo sapiens, MOLM-14, 48 h).

Take `Cc1cncc2c1c(CC1CCN(CC3CCN(C(=O)C(C)C)CC3)C1)cn2-c1ccc(F)cc1C(=O)N1CC(O)CC1C` (centres unmarked) [Compound 332]: the pIC50 in experiment [1] was 9.89; in experiment [2] (Homo sapiens, MOLM-14, 48 h) it was 6.71.

Turning to `Cc1cncc2c1c(C[C@@H]1CCN(CC3CCOCC3)C1)cn2-c1ccc(F)cc1C(=O)N1CCCC1C(C)O` (single isomer, unassigned) [Compound 363a], the pIC50 is 9.64 in experiment [1] and 6.44 in experiment [2].

Turning to `CC(=O)N1C[C@@H]2CN(CCC[C@@H](C(C)C)N3CC[C@H](Cc4cn(-c5ccc(F)cc5C(=O)N(C)C(C)C)c5cncc(Cl)c45)C3)C[C@H]2C1` (single isomer, unassigned) [Compound 19b], the pIC50 was 10.19 in experiment [1] and 6.89 in experiment [2] (Homo sapiens, MOLM-14, 48 h).

For `Cc1cncc2c1c(CC1CCN(C[C@H]3CC[C@H](NS(C)(=O)=O)CC3)C1)cn2-c1ccc(F)cc1C(=O)N(C)C(C)C` (single isomer, unassigned) [Compound 68], the pIC50 is 10.37 in experiment [1] and 7.49 in experiment [2] (Homo sapiens, MOLM-14, 48 h).

Consider `Cc1cncc2c1c(C[C@@H]1CCN(C[C@@H]3CCNC(=O)CC3)C1)cn2-c1ccc(F)cc1C(=O)N1CCC2CC21` (single isomer, unassigned) [Compound 351b], for which the pIC50 in experiment [1] is 9.59; in experiment [2] (Homo sapiens, MOLM-14, 48 h), 6.74.

In the case of `CC(=O)N1CCC(CN2CCC(Cc3cn(-c4ccc(F)cc4C(=O)N(C)C(C)C)c4cncc(C)c34)C2C)CC1` (centres unmarked) [Compound 229], the results for the pIC50 in experiment [1] and in experiment [2] were 9.63 and 7.03, respectively.

As for `CC(=O)N1CCC([C@@H](C)N2CC[C@H](Cc3cn(-c4ccc(F)cc4[S@](=N)(=O)C(C)C)c4cncc(C)c34)C2)CC1` (single isomer, unassigned) [Compound 232a], the pIC50 in experiment [1] is 9.20; in experiment [2] (Homo sapiens, MOLM-14, 48 h), about 6.35.

For `CCNC(=O)[C@H]1CC[C@H](CN2CC(Cc3cn(-c4ccc(F)cc4C(=O)N(C)C(C)C)c4cncc(C)c34)C2)CC1` [Compound 143], the pIC50 in experiment [1] is 10.19; in experiment [2] (Homo sapiens, MOLM-14, 48 h), 8.30.

As for `CC(=O)N1CCCCC1C1(CN2CC(Cc3cn(-c4ccc(F)cc4C(=O)N(C)C(C)C)c4cncc(C)c34)C2)CC1` (centres unmarked) [Compound 297], the pIC50 is 9.32 in experiment [1] and under 6.00 in experiment [2] (Homo sapiens, MOLM-14, 48 h).

Turning to `Cc1cncc2c1c(CC1CN(CC3CCOCC3)C1)cn2-c1ccc(F)cc1C(=O)N(CCO)C1CC1` [Compound 278], the pIC50 was 9.49 in experiment [1] and 6.47 in experiment [2] (Homo sapiens, MOLM-14, 48 h).

As to `Cc1cncc2c1c(CC1CCN(CC3CCN(C(=O)C(C)(C)O)CC3)CC1)cn2-c1ccc(F)cc1C(=O)N(C)C(C)C` [Compound 237], the pIC50 in experiment [1] was 9.83; in experiment [2] (Homo sapiens, MOLM-14, 48 h), 7.28.

Take `Cc1cncc2c1c(C[C@@H]1CCN(CC3CCCCC3)C1)cn2-c1ccc(F)cc1C(=O)N(C)C(C)C` [Compound 193]: the pIC50 in experiment [1] was 10.15; in experiment [2] (Homo sapiens, MOLM-14, 48 h), 7.39.

As for `Cc1cncc2c1c(CC1CN(CC3CCOCC3)C1)cn2-c1ccc(F)cc1C(=O)N(C)C1CC1` [Compound 265], the pIC50 in experiment [1] is 10.01; in experiment [2] (Homo sapiens, MOLM-14, 48 h), 7.34.

Take `CC(=O)N1CCC(CN2CCC[C@@H](Cc3cn(-c4ccc(F)cc4C(=O)N(C)C(C)C)c4cncc(C)c34)C2)CC1` [Compound 146]: the pIC50 in experiment [1] was 8.91; in experiment [2] (Homo sapiens, MOLM-14, 48 h), under 6.00.

Regarding `Cc1cncc2c1c(C[C@H]1CCN(CC3CCN(C(=O)C4(O)CC4)CC3)C1)cn2-c1ccc(F)cc1C(=O)N(C)C(C)C` [Compound 245], the pIC50 in experiment [1] is 9.73; in experiment [2] (Homo sapiens, MOLM-14, 48 h), 7.19.

With `Cc1cncc2c1c(C[C@@H]1CN[C@H](C)C1)cn2-c1ccc(F)cc1C(=O)N(C)C(C)C` [Compound 504], the pIC50 was 7.62 in experiment [1] and under 6.00 in experiment [2] (Homo sapiens, MOLM-14, 48 h).

For `CC(=O)N1CCC(C)(CN2CC[C@@H](Cc3cn(-c4ccc(F)cc4C(=O)N(C[C@@H](C)O)C(C)C)c4cncc(C)c34)C2)CC1` [Compound 339], the negative logarithm of the IC50 (pIC50) in experiment [1] was 9.71; in experiment [2] (Homo sapiens, MOLM-14, 48 h), 7.17.
